# Data as given in US20170037028A1 (BAYER PHARMA AKTIENGESELLSCHAFT, priority 2013, published 2017).
# Molecular target: T1, GLUT1 (Homo sapiens, UniProt P11166)
# T1 sequence (P11166 1-492): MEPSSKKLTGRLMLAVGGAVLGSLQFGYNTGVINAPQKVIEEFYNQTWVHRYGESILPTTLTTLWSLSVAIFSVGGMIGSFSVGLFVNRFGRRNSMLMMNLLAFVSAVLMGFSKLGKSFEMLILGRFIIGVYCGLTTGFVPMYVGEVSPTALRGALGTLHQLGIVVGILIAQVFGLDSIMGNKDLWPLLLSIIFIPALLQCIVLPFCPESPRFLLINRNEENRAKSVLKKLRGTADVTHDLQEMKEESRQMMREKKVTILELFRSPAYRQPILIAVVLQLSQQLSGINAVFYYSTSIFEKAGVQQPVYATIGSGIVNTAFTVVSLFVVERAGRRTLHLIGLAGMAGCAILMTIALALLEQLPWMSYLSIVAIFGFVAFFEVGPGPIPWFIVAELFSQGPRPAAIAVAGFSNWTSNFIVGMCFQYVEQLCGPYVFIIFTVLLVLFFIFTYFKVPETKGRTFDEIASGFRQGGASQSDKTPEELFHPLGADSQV
# Assay: Indirect measurement of GLUT1 activity by quantification of intracellular ATP levels (glucose induced ATP increase)
# Type: cell-based
# Design: endogenous in cells; host or cells: DLD1 or CHO-K1
# Conditions: read-out: IC50 regarding glucose induced ATP increase (GLUT1 inhibition)
# Description: Indirect Measurement of GLUT1 and GLUT2 Activity by Quantification of Intracellular ATP Levels
# It is well known that a combination of small-molecule inhibitors of mitochondrial electron transport chain and glucose catabolism synergistically suppress ATP production and impair cellular viability (Ulanovskaya et al., 2008, 2011; Liu, et al. 2001). We therefore used DLD1 or CHO-K1 cells in combination with an oxidative phosphorylation inhibitor to identify GLUT1 and GLUT2 inhibitors. Cell lines were maintained in DMEM medium supplemented with 10% FCS and 1% Penicillin-Streptomycin solution and 2% Glutamax. The cells were treated with trypsin and seeded into 384 plates at a density of 4000 cells/well. The cells were then cultured overnight in glucose free media containing 1% FCS to reduce intracellular ATP levels. […] The CellTiter-Glo® Luminescent Cell Viability Assay from Promega was then used to measure ATP Levels.
row,IC50 [nM],Compound
1,50,"COc1cc(C(=O)Nc2c(C)nn(Cc3c(F)cc(F)cc3F)c2C)c2ccccc2n1 [Example 50, N-[3,5-dimethyl-1-(2,4,6-trifluorobenzyl)-1H-pyrazol-4-yl]-2-methoxyquinoline-4-carboxamide]"
2,50,"COc1cc(C(=O)Nc2c(C)nn(Cc3ccccc3C)c2C)c2ccccc2n1 [Example 51, N-[3,5-dimethyl-1-(2-methylbenzyl)-1H-pyrazol-4-yl]-2-methoxyquinoline-4-carboxamide]"
3,52.1,"Cc1cccc(Cn2nc(C)c(NC(=O)c3cc(C(F)(F)F)nc4ccc(Br)cc34)c2C)c1 [Example 52, 6-bromo-N-[3,5-dimethyl-1-(3-methylbenzyl)-1H-pyrazol-4-yl]-2-(trifluoromethyl)quinoline-4-carboxamide]"
4,52.4,"Cc1cc(C(=O)Nc2c(C)nn(Cc3ccc(F)cc3)c2C)c2cccc(Br)c2n1 [Example 53, 8-bromo-N-[1-(4-fluorobenzyl)-3,5-dimethyl-1H-pyrazol-4-yl]-2-methylquinoline-4-carboxamide]"
5,58.3,"Cc1ccc(Cn2nc(C)c(NC(=O)c3cc(C(F)(F)F)nc4ccc(Br)cc34)c2C)cc1 [Example 54, 6-bromo-N-[3,5-dimethyl-1-(4-methylbenzyl)-1H-pyrazol-4-yl]-2-(trifluoromethyl)quinoline-4-carboxamide]"
6,59.3,"COc1cc(C(=O)Nc2c(C)nn(Cc3ccc(F)c(F)c3)c2C)c2ccccc2n1 [Example 55, N-[1-(3,4-difluorobenzyl)-3,5-dimethyl-1H-pyrazol-4-yl]-2-methoxyquinoline-4-carboxamide]"
7,60.4,"Cc1nn(Cc2ccc(OC(F)(F)F)cc2)c(C)c1NC(=O)c1cc(C(F)(F)F)nc2ccc(Br)cc12 [Example 56, 6-bromo-N-{3,5-dimethyl-1-[4-(trifluoromethoxy)benzyl]-1H-pyrazol-4-yl}-2-(trifluoromethyl)quinoline-4-carboxamide]"
8,66.7,"Cc1nn(Cc2c(F)cc(F)cc2F)c(C)c1NC(=O)c1cc(C(F)(F)F)nc2c(Cl)cc(Cl)cc12 [Example 57, 6,8-dichloro-N-[3,5-dimethyl-1-(2,4,6-trifluorobenzyl)-1H-pyrazol-4-yl]-2-(trifluoromethyl)quinoline-4-carboxamide]"
9,77.1,"Cc1ccc2nc(C)cc(C(=O)Nc3c(C)nn(Cc4ccc(OC(F)(F)F)cc4)c3C)c2c1 [Example 58, N-{3,5-dimethyl-1-[4-(trifluoromethoxy)benzyl]-1H-pyrazol-4-yl}-2,6-dimethylquinoline-4-carboxamide]"
10,92.6,"Cc1nn(Cc2ccccc2)c(C)c1NC(=O)c1cc(C(F)(F)F)nc2c(Cl)cc(Cl)cc12 [Example 59, N-(1-benzyl-3,5-dimethyl-1H-pyrazol-4-yl)-6,8-dichloro-2-(trifluoromethyl)quinoline-4-carboxamide]"
11,97.9,"Cc1nn(Cc2ccc(OC(F)(F)F)cc2)c(C)c1NC(=O)c1cc(C(F)(F)F)nc2c(Cl)cc(Cl)cc12 [Example 60, 6,8-dichloro-N-{3,5-dimethyl-1-[4-(trifluoromethoxy)benzyl]-1H-pyrazol-4-yl}-2-(trifluoromethyl)quinoline-4-carboxamide]"
12,110,"COc1cc(C(=O)Nc2c(C)nn(Cc3ccc(C)cc3)c2C)c2ccccc2n1 [Example 61, N-[3,5-dimethyl-1-(4-methylbenzyl)-1H-pyrazol-4-yl]-2-methoxyquinoline-4-carboxamide]"
13,127,"Cc1ccc2nc(C)cc(C(=O)Nc3c(C)nn(Cc4ccc(F)cc4)c3C)c2c1 [Example 62, N-[1-(4-fluorobenzyl)-3,5-dimethyl-1H-pyrazol-4-yl]-2,6-dimethylquinoline-4-carboxamide]"
14,129,"Cc1nn(Cc2ccc(F)cc2)c(C)c1NC(=O)c1cc(C(F)(F)F)nc2ccc(OC(F)(F)F)cc12 [Example 63, N-[1-(4-fluorobenzyl)-3,5-dimethyl-1H-pyrazol-4-yl]-6-(trifluoromethoxy)-2-(trifluoromethyl)quinoline-4-carboxamide]"
15,130,"Cc1ccc2nc(C)cc(C(=O)Nc3c(C)nn(Cc4ccc(F)c(F)c4)c3C)c2c1 [Example 64, N-[1-(3,4-difluorobenzyl)-3,5-dimethyl-1H-pyrazol-4-yl]-2,6-dimethylquinoline-4-carboxamide]"

# The remaining lines, values behind:
row,Compound,IC50 [nM]
1,"Cc1nn(Cc2ccc(F)cc2)c(C)c1NC(=O)c1cc(C(F)(F)F)nc2cccc(Br)c12 [Example 34, 5-bromo-N-[1-(4-fluorobenzyl)-3,5-dimethyl-1H-pyrazol-4-yl]-2-(trifluoromethyl)quinoline-4-carboxamide]",25.2
2,"Cc1nn(Cc2ccc(F)c(F)c2)c(C)c1NC(=O)c1cc(C(F)(F)F)nc2c(Cl)cc(Cl)cc12 [Example 35, 6,8-dichloro-N-[1-(3,4-difluorobenzyl)-3,5-dimethyl-1H-pyrazol-4-yl]-2-(trifluoromethyl)quinoline-4-carboxamide]",25.6
3,"Cc1nn(Cc2ccc(F)cc2)c(C)c1NC(=O)c1cc(Br)nc2ccccc12 [Example 36, 2-bromo-N-[1-(4-fluorobenzyl)-3,5-dimethyl-1H-pyrazol-4-yl]quinoline-4-carboxamide]",88.9
4,"Cc1nn(Cc2ccc(F)cc2)c(C)c1NC(=O)c1c2c(nc3ccc(Br)cc13)CCCC2 [Example 37, 7-bromo-N-[1-(4-fluorobenzyl)-3,5-dimethyl-1H-pyrazol-4-yl]-1,2,3,4-tetrahydroacridine-9-carboxamide]",26.7
5,"Cc1c(NC(=O)c2cc(C(F)(F)F)nc3c(Cl)cc(Cl)cc23)c(C(F)(F)F)nn1Cc1ccc(F)cc1 [Example 38, 6,8-dichloro-N-[1-(4-fluorobenzyl)-5-methyl-3-(trifluoromethyl)-1H-pyrazol-4-yl]-2-(trifluoromethyl)quinoline-4-carboxamide]",29.5
6,"Cc1nn(Cc2ccc(F)cc2)c(C)c1NC(=O)c1cc(C(F)(F)F)nc2cc(F)c(F)cc12 [Example 39, 6,7-difluoro-N-[1-(4-fluorobenzyl)-3,5-dimethyl-1H-pyrazol-4-yl]-2-(trifluoromethyl)quinoline-4-carboxamide]",30
7,"Cc1nn(Cc2ccc(F)cc2)c(C)c1NC(=O)c1cc(C2CC2)nc2c(F)cccc12 [Example 40, 2-cyclopropyl-8-fluoro-N-[1-(4-fluorobenzyl)-3,5-dimethyl-1H-pyrazol-4-yl]quinoline-4-carboxamide]",30
8,"Cc1nn(Cc2ccc(F)cc2F)c(C)c1NC(=O)c1cc(C(F)(F)F)nc2ccc(Br)cc12 [Example 41, 6-bromo-N-[1-(2,4-difluorobenzyl)-3,5-dimethyl-1H-pyrazol-4-yl]-2-(trifluoromethyl)quinoline-4-carboxamide]",30
9,"COc1cc(C(=O)Nc2c(C)nn(Cc3c(F)cccc3F)c2C)c2ccccc2n1 [Example 42, N-[1-(2,6-difluorobenzyl)-3,5-dimethyl-1H-pyrazol-4-yl]-2-methoxyquinoline-4-carboxamide]",30.9
10,"Cc1cc(C(=O)Nc2c(C)nn(Cc3ccc(F)cc3)c2C)c2cc(Br)ccc2n1 [Example 43, 6-bromo-N-[1-(4-fluorobenzyl)-3,5-dimethyl-1H-pyrazol-4-yl]-2-methylquinoline-4-carboxamide]",31.7
11,"Cc1ccc2nc(C)cc(C(=O)Nc3c(C)nn(Cc4ccc(C#N)cc4)c3C)c2c1 [Example 44, N-[1-(4-cyanobenzyl)-3,5-dimethyl-1H-pyrazol-4-yl]-2,6-dimethylquinoline-4-carboxamide]",32.1
12,"Cc1ccc(Cn2nc(C)c(NC(=O)c3cc(C)nc4ccc(C)cc34)c2C)cc1 [Example 45, N-[3,5-dimethyl-1-(4-methylbenzyl)-1H-pyrazol-4-yl]-2,6-dimethylquinoline-4-carboxamide]",35.4
13,"Cc1nn(Cc2ccc(F)cc2)c(C)c1NC(=O)c1cc(C2CC2)nc2cccc(F)c12 [Example 46, 2-cyclopropyl-5-fluoro-N-[1-(4-fluorobenzyl)-3,5-dimethyl-1H-pyrazol-4-yl]quinoline-4-carboxamide]",40
14,"Cc1nn(Cc2ccc(F)c(F)c2)c(C)c1NC(=O)c1cc(C(F)(F)F)nc2ccc(Br)cc12 [Example 47, 6-bromo-N-[1-(3,4-difluorobenzyl)-3,5-dimethyl-1H-pyrazol-4-yl]-2-(trifluoromethyl)quinoline-4-carboxamide]",44.4
15,"Cc1nn(Cc2ccc(F)cc2F)c(C)c1NC(=O)c1cc(C(F)(F)F)nc2c(Cl)cc(Cl)cc12 [Example 48, 6,8-dichloro-N-[1-(2,4-difluorobenzyl)-3,5-dimethyl-1H-pyrazol-4-yl]-2-(trifluoromethyl)quinoline-4-carboxamide]",44.4
16,"Cc1nn(Cc2c(F)cc(F)cc2F)c(C)c1NC(=O)c1cc(C(F)(F)F)nc2ccc(Br)cc12 [Example 49, 6-bromo-N-[3,5-dimethyl-1-(2,4,6-trifluorobenzyl)-1H-pyrazol-4-yl]-2-(trifluoromethyl)quinoline-4-carboxamide]",50
